Data as given in ChEMBL document CHEMBL3232855, “The discovery of N-((2H-tetrazol-5-yl)methyl)-4-((R)-1-((5r,8R)-8-(tert-butyl)-3-(3,5-dichlorophenyl)-2-oxo-1,4-diazaspiro[4.5]dec-3-en-1-yl)-4,4-dimethylpentyl)benzamide (SCH 900822): a potent and selective glucagon receptor antagonist” (J Med Chem, 2014).
Active and inactive are the calls of the source. The rule behind the calls is not given here.

How the values were obtained:
[1] = Volume of distribution at steady state in mouse at 3 mg/kg, iv; assay type: ADME, organism-based; parameters: dose 3 mg/kg, route intravenous; conditions: in vivo, read-out: Vdss
[2] = Half life in dog at 1 mg/kg, iv; assay type: ADME, organism-based, Canis lupus familiaris; parameters: dose 1 mg/kg, route intravenous; conditions: in vivo
Mus musculus [3] = test: Antidiabetic activity in diet-induced obese ICR mouse model assessed as decrease in fasting blood glucose level at 3 to 10 mg/kg, po measured at 4 hrs by glucometer; assay type: functional, organism-based
Mus musculus [4] = test: Toxicity in streptozotocin-induced ICR mouse type-2 diabetic model assessed as effect on body weight at 3 to 30 mg/kg, po after 24 hrs; assay type: organism-based; parameters: dose 3-30 mg/kg, route oral; conditions: in vivo
[5] = Volume of distribution at steady state in dog at 1 mg/kg, iv; assay type: ADME, organism-based, Canis lupus familiaris; parameters: dose 1 mg/kg, route intravenous; conditions: in vivo, read-out: Vdss
Rhesus monkey = test: Dose-normalized AUC in monkey at 3 mg/kg, po; assay type: ADME, organism-based, Macaca mulatta; parameters: dose 3 mg/kg, route oral; conditions: in vivo
Mus musculus [6] = test: Antidiabetic activity in diet-induced obese ICR mouse model assessed as inhibition of glucagon-induced glucose excursion at 10 to 30 mg/kg, po bid measured for 60 mins by glucometer; assay type: functional, organism-based
Glucagon receptor = Glucagon receptor (Homo sapiens, UniProt P47871); test: biochemical; assay type: cell-based, CHO
Chain of Glucagon receptor (P47871 whole entry): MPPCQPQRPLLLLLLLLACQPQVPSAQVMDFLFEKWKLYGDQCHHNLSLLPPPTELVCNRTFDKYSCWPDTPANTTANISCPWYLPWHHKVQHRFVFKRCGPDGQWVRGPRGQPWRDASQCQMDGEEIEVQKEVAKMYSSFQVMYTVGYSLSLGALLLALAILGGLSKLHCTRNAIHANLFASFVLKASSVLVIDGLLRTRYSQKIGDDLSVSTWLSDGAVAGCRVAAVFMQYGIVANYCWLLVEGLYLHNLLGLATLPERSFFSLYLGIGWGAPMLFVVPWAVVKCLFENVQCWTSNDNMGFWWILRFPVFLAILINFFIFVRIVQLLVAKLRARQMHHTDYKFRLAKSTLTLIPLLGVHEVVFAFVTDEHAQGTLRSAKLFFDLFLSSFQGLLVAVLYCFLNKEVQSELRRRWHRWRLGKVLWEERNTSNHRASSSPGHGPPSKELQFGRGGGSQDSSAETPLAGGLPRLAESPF
Description: Displacement of [125I]-glucagon from recombinant human GCGR expressed in CHO cells after 60 mins by scintillation counting analysis

Rattus norvegicus = test: Dose-normalized AUC in rat at 3 mg/kg, po; assay type: ADME, organism-based; parameters: dose 3 mg/kg, route oral; conditions: in vivo
[7] = Half life in mouse at 3 mg/kg, iv; assay type: ADME, organism-based; parameters: dose 3 mg/kg, route intravenous; conditions: in vivo
[8] = target: Glucagon-like peptide 1 receptor (Homo sapiens, UniProt P43220); test: Antagonist activity at human GLP-1R expressed in CHO cells assessed as inhibition of GLP-1-stimulated cAMP production preincubated for 30 mins followed by GLP-1 induction measured after 45 mins by LANCE assay; assay type: functional, cell-based
Chain of Glucagon-like peptide 1 receptor (P43220 whole entry): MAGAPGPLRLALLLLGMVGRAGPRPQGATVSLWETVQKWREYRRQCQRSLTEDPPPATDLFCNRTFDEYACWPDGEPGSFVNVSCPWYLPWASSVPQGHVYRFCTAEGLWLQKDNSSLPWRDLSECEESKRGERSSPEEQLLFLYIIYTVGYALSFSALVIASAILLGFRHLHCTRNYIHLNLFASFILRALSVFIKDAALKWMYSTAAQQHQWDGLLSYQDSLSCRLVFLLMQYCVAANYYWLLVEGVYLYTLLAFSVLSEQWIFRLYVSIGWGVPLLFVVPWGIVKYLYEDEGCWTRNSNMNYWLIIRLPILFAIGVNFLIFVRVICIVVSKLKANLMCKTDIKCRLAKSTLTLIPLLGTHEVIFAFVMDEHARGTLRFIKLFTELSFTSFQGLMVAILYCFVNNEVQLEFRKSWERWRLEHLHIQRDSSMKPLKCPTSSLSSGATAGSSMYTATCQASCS

[9] = Plasma clearance in monkey at 3 mg/kg, iv; assay type: ADME, organism-based, Macaca mulatta; parameters: dose 3 mg/kg, route intravenous; conditions: rhesus monkey
[10] = Plasma clearance in dog at 1 mg/kg, iv; assay type: ADME, organism-based, Canis lupus familiaris; parameters: dose 1 mg/kg, route intravenous
[11] = Plasma concentration in diet-induced obese ICR mouse model at 3 mg/kg, po measured at 24 hrs by HPLC/MS/MS analysis; assay type: ADME, organism-based; parameters: dose 3 mg/kg, route oral
[12] = Volume of distribution at steady state in monkey at 3 mg/kg, iv; assay type: ADME, organism-based, Macaca mulatta; parameters: dose 3 mg/kg, route intravenous; conditions: rhesus monkey, in vivo, read-out: Vdss

## CC(C)(C)CC[C@H](c1ccc(C(=O)NCc2nn[nH]n2)cc1)N1C(=O)C(c2cc(Cl)cc(Cl)c2)=N[C@]12CC[C@@H](C(C)(C)C)CC2
[1]
  Vd: 1.3 L/kg
[2]
  half-life: 6.1 h
Mus musculus [3]
  Activity: Active
Mus musculus [4]
  Activity: Non-toxic
[5]
  Vd: 0.1 L/kg
Rhesus monkey
  AUC/dose: 22 µM·h/mg/kg
Mus musculus [6]
  inhibition: Active
Glucagon receptor
  IC50: 24 nM
Rattus norvegicus
  AUC/dose: 2.2 µM·h/mg/kg
[7]
  half-life: 11 h
[8]
  IC50: > 10000 nM
[9]
  clearance: 0.6 mL/min/kg
[10]
  clearance: 0.3 mL/min/kg
[11]
  concentration at 24 h: 430 nM
[12]
  Vd: 0.4 L/kg
